Experimental data reported in ChEMBL document CHEMBL4033736, “A new type of pharmacological chaperone for GM1-gangliosidosis related human lysosomal β-galactosidase: N-Substituted 5-amino-1-hydroxymethyl-cyclopentanetriols” (Bioorg Med Chem Lett, 2017).
Positions count from the first letter of the chain named. pKi: −log10 of the molar value. Calls of active or inactive are those of the source. No cut-off for these calls is given here.

Biological target: not listed separately
Experiment: Competitive inhibition of Fabrazyme (human recombinant alpha-galactosidase) using 4-nitrophenyl alpha-galactopyranoside as substrate pre-incubated for up to 5 mins before substrate addition

| pKi | Structure (SMILES) |
| --- | --- |
| < 2.70 | CCCCCCCCN[C@@H]1C=C(CO)[C@H](O)[C@H](O)[C@H]1O |
| < 2.70 | N#CCCCCCN[C@H]1[C@H](O)[C@@H](O)[C@@H](O)[C@H]1CO |
| < 2.70 | NCCCCCCN[C@H]1[C@H](O)[C@@H](O)[C@@H](O)[C@H]1CO |

Test system: T1, Beta-galactosidase (Homo sapiens), P16278 [R201C]
T1 sequence (whole entry): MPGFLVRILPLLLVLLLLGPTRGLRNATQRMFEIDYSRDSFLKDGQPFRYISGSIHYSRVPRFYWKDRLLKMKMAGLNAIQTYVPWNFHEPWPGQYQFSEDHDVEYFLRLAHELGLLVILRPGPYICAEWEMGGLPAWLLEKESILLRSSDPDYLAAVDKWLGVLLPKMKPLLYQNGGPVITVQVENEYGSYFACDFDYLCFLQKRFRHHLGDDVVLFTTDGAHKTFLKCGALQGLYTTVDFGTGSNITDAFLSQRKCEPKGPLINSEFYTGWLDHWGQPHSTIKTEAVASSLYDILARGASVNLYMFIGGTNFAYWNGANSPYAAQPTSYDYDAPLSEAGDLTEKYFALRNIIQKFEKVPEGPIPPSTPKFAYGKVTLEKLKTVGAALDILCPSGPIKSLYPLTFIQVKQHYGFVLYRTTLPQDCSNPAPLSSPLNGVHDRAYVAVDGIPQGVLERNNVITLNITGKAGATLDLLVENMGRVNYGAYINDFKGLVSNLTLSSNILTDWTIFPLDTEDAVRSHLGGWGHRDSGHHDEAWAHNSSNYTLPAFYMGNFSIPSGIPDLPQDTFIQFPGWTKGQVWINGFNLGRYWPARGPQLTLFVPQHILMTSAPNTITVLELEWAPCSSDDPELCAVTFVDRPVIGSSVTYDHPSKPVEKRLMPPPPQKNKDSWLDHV
Experiment: Chaperone activity at beta-galactosidase R201C mutant isolated from human patient fibroblasts assessed as increase increase in thermal stability at 0.2 uM at 48 degC by thermal stability assay

| Activity | Structure (SMILES) |
| --- | --- |
| Active | NCCCCCCN[C@H]1[C@H](O)[C@@H](O)[C@@H](O)[C@H]1CO |

Biological target: not listed separately
Experiment: Competitive inhibition of Saccharomyces cerevisiae alpha-glucosidase using 4-nitrophenyl alpha-[…] as substrate pre-incubated for up to 5 mins before substrate addition

| pKi | Structure (SMILES) |
| --- | --- |
| < 2.70 | CCCCCCCCN[C@@H]1C=C(CO)[C@H](O)[C@H](O)[C@H]1O |
| < 2.70 | N#CCCCCCN[C@H]1[C@H](O)[C@@H](O)[C@@H](O)[C@H]1CO |
| < 2.70 | NCCCCCCN[C@H]1[C@H](O)[C@@H](O)[C@@H](O)[C@H]1CO |

Test system: T1, Beta-galactosidase (Homo sapiens), P16278 [R201C]
Experiment: Chaperone activity at beta-galactosidase R201C mutant isolated from human patient fibroblasts assessed as increase in enzyme activity at 0.05 uM using 4-nitrophenyl beta-D-galactopyranoside as substrate relative to untreated control

| fold change (FC) | Structure (SMILES) |
| --- | --- |
| 4 | NCCCCCCN[C@H]1[C@H](O)[C@@H](O)[C@@H](O)[C@H]1CO |

Biological target: T2, Beta-galactosidase (Bos taurus, UniProt Q58D55)
T2 sequence (Q58D55 whole entry): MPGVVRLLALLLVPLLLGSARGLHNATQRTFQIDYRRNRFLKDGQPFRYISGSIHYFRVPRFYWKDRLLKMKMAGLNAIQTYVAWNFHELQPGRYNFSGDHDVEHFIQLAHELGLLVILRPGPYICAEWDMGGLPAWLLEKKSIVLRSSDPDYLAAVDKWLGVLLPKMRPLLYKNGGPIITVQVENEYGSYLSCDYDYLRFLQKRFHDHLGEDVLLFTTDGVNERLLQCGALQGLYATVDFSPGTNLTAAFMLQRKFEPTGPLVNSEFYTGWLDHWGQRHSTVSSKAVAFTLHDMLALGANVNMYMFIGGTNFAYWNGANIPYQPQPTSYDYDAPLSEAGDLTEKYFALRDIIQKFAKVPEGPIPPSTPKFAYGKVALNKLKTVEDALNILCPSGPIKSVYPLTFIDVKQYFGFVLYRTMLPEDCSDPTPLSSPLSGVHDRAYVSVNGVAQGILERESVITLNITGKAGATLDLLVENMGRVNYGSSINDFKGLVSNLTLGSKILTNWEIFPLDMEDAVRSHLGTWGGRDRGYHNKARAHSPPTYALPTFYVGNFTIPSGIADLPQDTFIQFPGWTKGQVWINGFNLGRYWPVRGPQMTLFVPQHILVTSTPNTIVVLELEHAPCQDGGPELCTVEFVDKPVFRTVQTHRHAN
Experiment: Competitive inhibition of Bovine liver beta-galactosidase using 4-nitrophenyl beta-D-galactopyranoside as substrate pre-incubated for up to 5 mins before substrate addition

| pKi | Structure (SMILES) |
| --- | --- |
| 6.96 | N#CCCCCCN[C@H]1[C@H](O)[C@@H](O)[C@@H](O)[C@H]1CO |
| 4.51 | NCCCCCCN[C@H]1[C@H](O)[C@@H](O)[C@@H](O)[C@H]1CO |

Test system: T1, Beta-galactosidase (Homo sapiens), P16278 [R201C]
Experiment: Chaperone activity at beta-galactosidase R201C mutant isolated from human patient fibroblasts assessed as increase in enzyme activity at 0.2 uM using 4-nitrophenyl beta-D-galactopyranoside as substrate relative to untreated control

| fold change (FC) | Structure (SMILES) |
| --- | --- |
| 5 | NCCCCCCN[C@H]1[C@H](O)[C@@H](O)[C@@H](O)[C@H]1CO |

Test system: T1, Beta-galactosidase (Homo sapiens), P16278 [R201C]
Experiment: Inhibition of beta-galactosidase R201C mutant isolated from human patient fibroblasts at 1 uM using 4-nitrophenyl beta-D-galactopyranoside as substrat

| inhibition | Structure (SMILES) |
| --- | --- |
| Active | NCCCCCCN[C@H]1[C@H](O)[C@@H](O)[C@@H](O)[C@H]1CO |

Test system: T1, Beta-galactosidase (Homo sapiens), P16278 [R201C]
Experiment: Chaperone activity at beta-galactosidase R201C mutant isolated from human patient fibroblasts assessed as increase in enzyme activity at 1 uM using 4-nitrophenyl beta-D-galactopyranoside as substrate relative to untreated control

| Activity | Structure (SMILES) |
| --- | --- |
| inactive | NCCCCCCN[C@H]1[C@H](O)[C@@H](O)[C@@H](O)[C@H]1CO |

Biological target: T3, Beta-galactosidase (Homo sapiens, UniProt P16278)
T3 sequence (P16278 whole entry): T1 sequence (whole entry) with C201R
Experiment: Competitive inhibition of human fibroblast lysosomal beta-galactosidase using 4-methylumbelliferyl-beta-D-galactopyranoside as substrate pre-incubated for up to 5 mins before substrate addition and measured after 30 mins

| pKi | Structure (SMILES) |
| --- | --- |
| 6.29 | CCCCCCCCN[C@@H]1C=C(CO)[C@H](O)[C@H](O)[C@H]1O |
| 5.04 | NCCCCCCN[C@H]1[C@H](O)[C@@H](O)[C@@H](O)[C@H]1CO |

Biological target: T4, Lysosomal acid glucosylceramidase (Homo sapiens, UniProt P04062)
T4 sequence (P04062 whole entry): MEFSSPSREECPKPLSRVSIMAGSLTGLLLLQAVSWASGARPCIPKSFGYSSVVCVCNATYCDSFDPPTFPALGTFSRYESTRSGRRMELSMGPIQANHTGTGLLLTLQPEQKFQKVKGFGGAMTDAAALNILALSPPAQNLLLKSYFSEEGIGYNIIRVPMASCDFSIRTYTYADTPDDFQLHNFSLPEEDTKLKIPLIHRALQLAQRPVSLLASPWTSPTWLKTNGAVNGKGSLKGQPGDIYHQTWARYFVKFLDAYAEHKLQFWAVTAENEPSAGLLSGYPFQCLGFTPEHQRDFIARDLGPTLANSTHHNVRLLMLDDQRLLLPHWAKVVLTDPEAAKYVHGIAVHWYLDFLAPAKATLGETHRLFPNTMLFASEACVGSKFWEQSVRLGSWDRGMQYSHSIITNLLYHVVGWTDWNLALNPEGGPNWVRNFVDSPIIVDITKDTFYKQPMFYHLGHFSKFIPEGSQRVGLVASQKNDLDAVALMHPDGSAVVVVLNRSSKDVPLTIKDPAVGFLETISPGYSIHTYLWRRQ
Experiment: Competitive inhibition of recombinant beta-glucocerebrosidase (unknown origin) using 4-nitrophenyl beta-D-[…] as substrate pre-incubated for up to 5 mins before substrate addition

| pKi | Structure (SMILES) |
| --- | --- |
| 4.08 | CCCCCCCCN[C@@H]1C=C(CO)[C@H](O)[C@H](O)[C@H]1O |
| 4.97 | N#CCCCCCN[C@H]1[C@H](O)[C@@H](O)[C@@H](O)[C@H]1CO |
| 4.27 | NCCCCCCN[C@H]1[C@H](O)[C@@H](O)[C@@H](O)[C@H]1CO |

Test system: not listed separately
Experiment: Competitive inhibition of Escherichia coli lacZ beta-galactosidase using 4-nitrophenyl beta-D-galactopyranoside as substrate pre-incubated for up to 5 mins before substrate addition

| Structure (SMILES) | pKi |
| --- | --- |
| CCCCCCCCN[C@@H]1C=C(CO)[C@H](O)[C@H](O)[C@H]1O | 5.55 |
| N#CCCCCCN[C@H]1[C@H](O)[C@@H](O)[C@@H](O)[C@H]1CO | 6.89 |
| NCCCCCCN[C@H]1[C@H](O)[C@@H](O)[C@@H](O)[C@H]1CO | 4.80 |

Biological target: not listed separately
Experiment: Competitive inhibition of Agrobacterium sp. beta-glucosidase using 4-nitrophenyl beta-D-galactopyranoside as substrate pre-incubated for up to 5 mins before substrate addition

| pKi | Structure (SMILES) |
| --- | --- |
| 5.11 | CCCCCCCCN[C@@H]1C=C(CO)[C@H](O)[C@H](O)[C@H]1O |
| 8.22 | N#CCCCCCN[C@H]1[C@H](O)[C@@H](O)[C@@H](O)[C@H]1CO |
| 7.02 | NCCCCCCN[C@H]1[C@H](O)[C@@H](O)[C@@H](O)[C@H]1CO |
